Assay results taken from paper PMC7809101, “Fetal bovine serum albumin inhibits antimicrobial peptide activity and binds drug only in complex with α1-antitrypsin” (Scientific Reports, 2021).

Tests used:
[1] = biological target: T1, protein A (albumin) (Bos taurus, UniProt P02769); assay: Fluorescence emission spectrum (blue shift), protein A; assay type: binding, bovine; set-up: The homogeneities of collected protein A (albumin), protein B (α1-antitrypsin), protein C (serotransferrin) and protein D complex; from tissue; host or cells: fetal bovine serum (70% ammonium sulfate fraction, FPLC Mono Q); conditions: protein A 0.75 μM, PC buffer, 25 °C, 30 min; excitation 285 nm, emission 300–450 nm; reagent up to: sarkosyl 320, TP4-A12I,A15I 120, ibuprofen 24, phenytoin 20 μM
T1 sequence (P02769 25-607): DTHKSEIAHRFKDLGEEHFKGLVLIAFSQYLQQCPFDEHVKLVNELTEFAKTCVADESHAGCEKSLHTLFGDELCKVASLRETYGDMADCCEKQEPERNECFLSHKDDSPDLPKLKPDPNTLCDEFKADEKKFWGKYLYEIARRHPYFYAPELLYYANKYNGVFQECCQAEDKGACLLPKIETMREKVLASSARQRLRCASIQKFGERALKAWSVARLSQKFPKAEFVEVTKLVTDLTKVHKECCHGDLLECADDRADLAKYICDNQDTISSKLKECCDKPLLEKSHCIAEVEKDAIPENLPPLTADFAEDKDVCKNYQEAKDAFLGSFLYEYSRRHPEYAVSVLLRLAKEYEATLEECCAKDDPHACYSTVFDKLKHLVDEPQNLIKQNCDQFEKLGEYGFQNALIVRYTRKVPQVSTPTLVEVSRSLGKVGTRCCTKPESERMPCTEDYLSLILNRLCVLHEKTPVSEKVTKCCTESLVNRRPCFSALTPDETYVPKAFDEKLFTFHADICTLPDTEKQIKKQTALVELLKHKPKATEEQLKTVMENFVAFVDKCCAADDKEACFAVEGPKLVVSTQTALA
Description: (§1) The mixtures were excited by 285 nm and its emission spectra were recorded between 300 and 450 nm using a temperature-controlled fluorimeter (FP8500, Jasco, Japan)[13].

[2] = biological target: T2, protein D (albumin and α1-antitrypsin complex) (Bos taurus, UniProt P02769+P34955); assay: Biolayer interferometry, protein D; assay type: binding, bovine; conditions: biotinylated TP4-A12I,A15I
T2 construct: The active components were further purified by fast performance liquid chromatography (FPLC) Mono Q and S12 column chromatography from the 70% saturated fraction; from tissue; host or cells: fetal bovine serum (70% ammonium sulfate fraction, FPLC Mono Q and Superose 12)
T2 sequence (P02769 25-607, one chain of several): as the sequence (P02769 25-607) above
Description: (§4) The biolayer interferometry were measured by an Octet RED384 instrument (ForteBio). […] Serial dilutions of serum components in 200 μl PC buffer were used as analyte. Affinity (Kd) and kinetic parameters (kon and koff) were calculated from a global fit (1:1) of the data using the Octet RED384 software[27].

[3] = biological target: T2, protein D (albumin and α1-antitrypsin complex); assay: Fluorescence emission spectrum (blue shift), protein D; assay type: binding, bovine; conditions: protein D 0.75 μM, PC buffer, 25 °C, 30 min; excitation 285 nm, emission 300–450 nm; reagent up to: sarkosyl 320, TP4-A12I,A15I 120, ibuprofen 24, phenytoin 20 μM
Description: as §1

[4] = test system: crude bovine serum; assay: Pulling down of proteins from crude bovine serum by biotinylated TP4-A12I,A15I; assay type: binding
Description: (§2) Streptavidin-conjugated beads were incubated with 10 μg of biotinylated TP4-A12I,A15I peptides in 600 μl PC buffer for one hour on a rolling wheel. The immobilized biotinylated AMPs were further mixed with serum components in the indicated 600 μl buffer(s) at room temperature for 30 min on a rolling wheel, then washed twice with 600 μl respective buffer and subjected to SDS-PAGE and Coomassie Blue staining. Specific proteins were excised from SDS-PAGE gel and subjected to in-gel trypsin digestion and liquid chromatography-tandem mass spectrometry.

[5] = biological target: T1, protein A (albumin); conditions: biolayer interferometry, Octet RED384; immobilized biotinylated TP4-A12I,A15I
Description: as §4

[6] = test system: protein A/D mixture; assay: FPLC S12 gel filtration of proteins A/D mixture with TP4-A12I,A15I; assay type: binding, bovine; conditions: reduced SDS-PAGE of eluates
Excerpt: To further investigate the differential binding of AMP to protein A and protein D, the TP4-A12I,A15I and protein A/D was mixed and subjected to gel filtration chromatography (FPLC S12). There was a front shoulder on the elution profile (Fig. 3g).

[7] = biological target: T2, protein D (albumin and α1-antitrypsin complex); assay: Inhibition of the binding of TP4-A12I,A15I to protein D (band shift competition); set-up: species or system bovine
Description: Reagents were added to the protein A and protein D at the indicated concentrations and excited at […] and recorded for the emission spectrum between 300 to 450 nm.
(§3) Various AMPs (4 μg each) were incubated with fetal bovine serum (FBS) components at room temperature in 10 μl PC buffer for 30 min and subjected to horizontal native 8% PAGE, pH8.0 or pH8.8, and Coomassie Blue staining.

[8] = test system: Escherichia coli K-12 (MG1655); assay: Antimicrobial (bactericidal) activity against E. coli, effect of serum or serum proteins; assay type: cell-based; conditions: FBS, PBS, 37 °C (Fig. 1d)
Description: The Gram-negative bacteria Escherichia coli K-12 (MG1655) was cultured and plated in/on Luria–Bertani broth/agar plate (Merck Millipore, Darmstadt, Germany). The Gram-positive Staphylococcus aureus (ATCC 6538P) was cultured and plated in tryptic soy broth/agar (BD, MD, USA). The fungus Candida albicans (ATCC 14,053) was cultured and plated in YM broth/agar (BD, MD, USA). The bacteria were grown overnight, washed, and diluted 1:2000 in phosphate buffered saline (PBS), pH 7.5 or DMEM (Life Biotech, California, USA), pH 7.4. Bacteria (ca. 1 × 10^6 colony-forming units, cfu) were mixed with antimicrobial peptides (AMP) in 100 μl PBS and incubated at 37 °C (for bacteria) and at 30 °C (for fungus). Serial dilutions of each AMP-treated bacteria in PBS/DMEM supplemented with FBS were prepared and plated for the determination of remaining viable cells (expressed as cfu). At least three independent experiments were performed for each assay to determine the average value with standard deviation. MBC was defined as the lowest AMP concentration that kills 99.9% of the original inoculum.

[9] = biological target: T1, protein A (albumin); assay: Pulling down of protein A by immobilized biotinylated TP4-A12I,A15I; assay type: binding, bovine; set-up: The homogeneities of collected protein A (albumin), protein B (α1-antitrypsin), protein C (serotransferrin) and protein D complex; from tissue; host or cells: fetal bovine serum (70% ammonium sulfate fraction, FPLC Mono Q); conditions: biotinylated peptide on Streptavidin-conjugated beads; PC buffer, room temperature, 30 min
Description: as §2

[10] = test system: fetal bovine serum (FBS); assay: Band shift of AMPs by fetal bovine serum; assay type: binding
Description: as §3

[11] = biological target: T2, protein D (albumin and α1-antitrypsin complex); assay: Cross-linking of AMP-protein D complex and Western blotting; assay type: binding, bovine; conditions: AMP/protein D cross-linked with glutaraldehyde, PC buffer, 37 °C, 30 min; reduced SDS-PAGE, Western blotting
Description: Small aliquots of serum components (4 μg) in the presence/absence of AMPs (2 μg) were incubated with various concentrations of glutaraldehyde in 10 μl PC buffer at 37 °C for 30 min. […]

[12] = biological target: T2, protein D (albumin and α1-antitrypsin complex); assay: Band shift of AMPs by protein D; assay type: binding, bovine
[13] = biological target: T2, protein D (albumin and α1-antitrypsin complex); assay: Pulling down of protein D by immobilized biotinylated TP4-A12I,A15I; assay type: binding, bovine
Description: as §2

[14] = biological target: T3, protein B (α1-antitrypsin) (Bos taurus, UniProt P34955); conditions: biolayer interferometry, Octet RED384; immobilized biotinylated TP4-A12I,A15I
T3 sequence (P34955 25-416): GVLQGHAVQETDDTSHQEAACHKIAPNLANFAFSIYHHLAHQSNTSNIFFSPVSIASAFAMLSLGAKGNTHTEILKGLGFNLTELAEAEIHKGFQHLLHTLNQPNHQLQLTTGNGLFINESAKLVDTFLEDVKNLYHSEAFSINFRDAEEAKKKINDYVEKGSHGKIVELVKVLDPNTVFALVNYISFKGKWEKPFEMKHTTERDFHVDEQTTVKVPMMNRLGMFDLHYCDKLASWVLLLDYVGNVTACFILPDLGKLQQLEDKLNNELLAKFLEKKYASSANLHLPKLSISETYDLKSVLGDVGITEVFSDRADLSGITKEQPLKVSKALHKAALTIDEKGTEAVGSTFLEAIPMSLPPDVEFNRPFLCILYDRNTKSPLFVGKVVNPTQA
Description: as §4

[15] = test system: serum protein; conditions: cited from earlier work
Description: Albumin is the most abundant protein in human serum (HSA, 45 mg/ml), followed in descending order by α1-antitrypsin (A1AT, 3.5 mg/ml), transferrin (2.5 mg/ml), α2-macroglobulin (2.5 mg/ml), haptoglobulin (1.8 mg/ml), low-density lipoprotein (LDL, 1.2 mg/ml), α1-acid glycoprotein (AGP, 0.8 mg/ml) and high-density lipoprotein (HDL, 0.6 mg/ml)[11]. These proteins are involved in the transportation of fatty acids, cholesterols, toxins and drugs in the blood stream.

For `CC[C@H](C)[C@H](NC(=O)[C@H](CO)NC(=O)[C@H](Cc1ccccc1)NC(=O)[C@H](CC(C)C)NC(=O)CNC(=O)CNC(=O)[C@@H](NC(=O)[C@@H](NC(=O)[C@H](Cc1c[nH]cn1)NC(=O)[C@H](Cc1c[nH]cn1)NC(=O)[C@@H](NC(=O)[C@@H](N)Cc1ccccc1)[C@@H](C)CC)[C@@H](C)CC)[C@@H](C)CC)C(=O)NCC(=O)N[C@@H](CCCCN)C(=O)N[C@H](C(=O)N[C@H](C(=O)N[C@@H](Cc1c[nH]cn1)C(=O)N[C@@H](CCCNC(=N)N)C(=O)N[C@@H](CC(C)C)C(=O)N[C@H](C(=O)N[C@@H](CCCNC(=N)N)C(=O)N[C@@H](CCCNC(=N)N)C(=O)N[C@@H](CCCNC(=N)N)C(=O)N[C@@H](CCCNC(=N)N)C(=O)N[C@@H](CCCNC(=N)N)C(=O)O)[C@@H](C)CC)[C@@H](C)CC)[C@@H](C)CC` [TP4-A12I,A15I], which “blue shift of fluorescence emission spectrum, protein A” value [1] is on record?
The value was “did not cause blue shift”.

And the “reversibility and potency of binding of protein D” value [2]?
Its value is “potent and reversible binding”.

What about the “blue shift of fluorescence emission spectrum, protein D” value [3] of the same compound?
Its value is “blue shift of fluorescence emission spectrum of protein D was observed”.

What about the “location of TP4-A12I,A15I-binding components after ammonium sulfate fractionation (pulling down)” value ([4]; 30%, 50%, 70% and 90% saturation, pulling down) of the same compound?
The value was “mainly located at the 70% ammonia sulfate saturation fraction”.

What about the “proteins pulled down from crude serum (major band)” value ([4]; biotinylated TP4-A12I,A15I on Streptavidin-conjugated beads, SDS-PAGE, LC/MS/MS, major band) of the same compound?
The value was “major band consisted of albumin and α1-antitrypsin”.

What about the “proteins pulled down from crude serum (minor band)” value ([4]; biotinylated TP4-A12I,A15I on Streptavidin-conjugated beads, SDS-PAGE, LC/MS/MS, minor band) of the same compound?
The value was “minor band was identified to be apolipoprotein AI (Apo-AI)”.

What about the “Kd (protein A)” value [5] of the same compound?
The value was “not detectable”.

What about the “co-elution with albumin in gel filtration” value [6] of the same compound?
The value was “co-eluted with albumin only at the front shoulder fractions”.

And the “proposed binding site in protein D” value ([7]; inferred from competition and fluorescence)?
The value was “probably at the drug-binding site II of albumin in the protein D complex”.

And the “susceptibility of bactericidal activity to serum's inhibition (E. coli), relative to TP4” value [8]?
The value was “more susceptible to serum’s inhibition”.

And the “binding to protein A (pulling down)” value [9]?
Its value is “not by protein A”.

What about the “location of TP4-A12I,A15I-binding components after ammonium sulfate fractionation (band shift)” value ([10]; 30%, 50%, 70% and 90% saturation, band shift) of the same compound?
Its value is “mainly located at the 70% ammonia sulfate saturation fraction”.

And the “FBS-mediated band shift of TP4 mutants” value ([10]; AMP 4 μg with FBS, 10 μl PC buffer, room temperature, 30 min, horizontal native 8% PAGE, pH8.0)?
Its value is “enhanced the shift”.

And the “association with proteins after cross-linking” value [11]?
Its value is “associated with protein A, protein B as well as monomeric and dimeric protein D”.

What about the “change of binding ability to protein D by mutation of TP4” value ([12]; band shift, Supplementary Fig. 3b, TP4 mutants 4 μg, 8% horizontal native PAGE) of the same compound?
The value was “increased the binding ability”.

What about the “binding to protein D (band shift, Fig. 7b)” value ([12]; protein A and D mixture (20 μg each), TP4-A12I,A15I 4 μg, 37 °C, 30 min, native PAGE, pH8.8) of the same compound?
Its value is “only protein D, but not protein A, was bound”.

And the “AMP-binding ability of protein D reduced by β-ME (band shift)” value ([12]; protein D reduced by β-ME, band shift (Fig. 4e))?
Its value is “destroyed”.

What about the “binding of protein D in the presence of SDS (dimerization inhibited)” value ([13]; 2 × SDS, equivalent to 0.125% SDS (w/v), pulling down, 15% non-reducing SDS-PAGE) of the same compound?
Its value is “unable to bind”.

And the “protein retained on immobilized TP4-A12I,A15I after β-ME wash” value ([13]; pulled-down protein D dissociated by β-ME (1X = 0.25%), 8% reduced SDS-PAGE)?
The value was “only protein B was still tightly associated”.

And the “binding of protein D constituents after dissociation by β-ME” value ([13]; β-ME 0.1–0.4%, pulling down (Fig. 4f))?
The value was “some protein D constituents were able to bind”.

And the “Kd (protein B)” value [14]?
Its value is “not detectable”.

Which results are given for `O=C1NC(=O)C(c2ccccc2)(c2ccccc2)N1` [phenytoin]?
blue shift of fluorescence emission spectrum, protein A [1]: no blue shift was seen; bound to serum protein [15]: 90%; blue shift of fluorescence emission spectrum, protein D [3]: no blue shift was seen; inhibition of binding of TP4-A12I,A15I to protein D ([7]; protein A and D mixture (20 μg each) pre-incubated with drug 30 min, then TP4-A12I,A15I (4 μg) at 37 °C, 30 min, native PAGE, pH8.8): not
